Reference: patent publication US6740521B2, “High-sensitive detection of environmental pollutants” (priority 2001, dated 2004)
Like-named read-outs stand apart in the source and are kept apart here.

Tested on: CHO 2F1813 cells
Type: cell-based, Chinese hamster
[1] = 2F1813 strain compared with SV40-promoter control strain 5K95, FIG. 3 to FIG. 6

Compound | Induction of the β-galactosidase activity expression [1] | Fluorescence value (β-galactosidase inducing activity) | Induction of the β-galactosidase activity expression
Nonylphenol A | observed only in the 2F1813 stain |  | 
CCCCC(CC)COC(=O)c1ccccc1C(=O)OCC(CC)CCCC (stereo not shown) [Di(ethylhexyl)phthalate] | observed only in the 2F1813 stain |  | 
Clc1ccccc1Cl [o-Dichlorobenzene] | observed only in the 2F1813 stain |  | 
[Ni] [Nickel] |  | 1.3˜18 RU | observed only in the 2F1813 stain
[Cd] [Cadmium] | observed only in the 2F1813 stain |  | 
C1COCCO1 [1,4-Dioxane] |  | 0˜27 RU | 
